Measured values from US8148391B2 (Cephalon, Inc., priority 2006, dated 2012).
Where two headings read alike, the source gives them in different places. Values belong to the compound of their own block, whether it stands above or below them.

Key:
[1] = target: T1, baculovirus-expressed ALK (Homo sapiens, UniProt Q9UM73); experiment: ALK Kinase Assay (ELISA-type, time-resolved fluorescence); type: biochemical
T1 construct: host or cells: baculovirus expression system
In short: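 Wells were coated with phospholipase C-γ at 10 μg/mL in Tris-buffered saline. Adding 30 ng/ml enzyme started the reaction, which ran at 37° C for 15 minutes before Eu-N1 PT66 antibody detection. Percent inhibition versus log10 concentration gave IC50 by variable-slope fit.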

[2] = target: T2, c-Met (cytoplasmic domain) (Homo sapiens, UniProt P08581); experiment: c-Met Kinase Assay (same methods as for ALK, with modifications); type: biochemical
T2 construct: 10 ng/mL c-Met (cytoplasmic domain, Invitrogen Corporation #PV3143); purchased Invitrogen Corporation PV3143
T2 sequence (P08581 956-1390 limits assumed): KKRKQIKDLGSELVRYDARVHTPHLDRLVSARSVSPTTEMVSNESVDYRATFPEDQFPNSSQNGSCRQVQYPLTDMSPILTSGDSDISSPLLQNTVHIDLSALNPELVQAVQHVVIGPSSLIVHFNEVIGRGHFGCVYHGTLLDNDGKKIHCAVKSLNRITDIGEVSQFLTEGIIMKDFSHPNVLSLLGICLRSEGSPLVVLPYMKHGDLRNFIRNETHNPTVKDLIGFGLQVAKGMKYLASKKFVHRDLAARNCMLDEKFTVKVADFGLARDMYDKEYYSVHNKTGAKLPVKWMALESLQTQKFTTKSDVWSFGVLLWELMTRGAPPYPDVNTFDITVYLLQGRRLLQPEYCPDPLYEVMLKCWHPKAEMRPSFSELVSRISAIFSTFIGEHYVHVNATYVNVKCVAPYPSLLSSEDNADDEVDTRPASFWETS
In short: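 IC50 values were fitted by variable-slope sigmoidal regression of percent inhibition against log compound concentration. Phosphorylation was read with Eu-N1 PT66 antibody after a 15 min, 37 °C reaction. The reaction was initiated with 10 ng/mL c-Met cytoplasmic domain on wells coated with 10 μg/mL PLC-γ in TBS.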

[3] = ALK kinase inhibition, 1 μM ATP, read-out: ALK Activity
[4] = c-Met kinase inhibition, 1 μM ATP, read-out: cMet Activity
[5] = 1 μM ATP (Km level), 30 ng/ml ALK, 37° C., 15 minutes, read-out: ALK Activity (ALK kinase inhibition, IC50 class)
[6] = 1 μM ATP (Km level), 10 ng/mL c-Met, read-out: cMet Activity (c-Met kinase inhibition, IC50 class)
[7] = 1 μM ATP (Km level), read-out: ALK Activity (ALK Kinase Inhibition, IC50)
[8] = 1 μM ATP (Km level), read-out: cMet Activity (c-Met Kinase Inhibition, IC50)
[9] = ALK kinase inhibition, 1 μM ATP (Km level), read-out: ALK Activity
[10] = c-Met kinase inhibition, 1 μM ATP (Km level), read-out: cMet Activity

T1 sequence (Q9UM73 19-1620): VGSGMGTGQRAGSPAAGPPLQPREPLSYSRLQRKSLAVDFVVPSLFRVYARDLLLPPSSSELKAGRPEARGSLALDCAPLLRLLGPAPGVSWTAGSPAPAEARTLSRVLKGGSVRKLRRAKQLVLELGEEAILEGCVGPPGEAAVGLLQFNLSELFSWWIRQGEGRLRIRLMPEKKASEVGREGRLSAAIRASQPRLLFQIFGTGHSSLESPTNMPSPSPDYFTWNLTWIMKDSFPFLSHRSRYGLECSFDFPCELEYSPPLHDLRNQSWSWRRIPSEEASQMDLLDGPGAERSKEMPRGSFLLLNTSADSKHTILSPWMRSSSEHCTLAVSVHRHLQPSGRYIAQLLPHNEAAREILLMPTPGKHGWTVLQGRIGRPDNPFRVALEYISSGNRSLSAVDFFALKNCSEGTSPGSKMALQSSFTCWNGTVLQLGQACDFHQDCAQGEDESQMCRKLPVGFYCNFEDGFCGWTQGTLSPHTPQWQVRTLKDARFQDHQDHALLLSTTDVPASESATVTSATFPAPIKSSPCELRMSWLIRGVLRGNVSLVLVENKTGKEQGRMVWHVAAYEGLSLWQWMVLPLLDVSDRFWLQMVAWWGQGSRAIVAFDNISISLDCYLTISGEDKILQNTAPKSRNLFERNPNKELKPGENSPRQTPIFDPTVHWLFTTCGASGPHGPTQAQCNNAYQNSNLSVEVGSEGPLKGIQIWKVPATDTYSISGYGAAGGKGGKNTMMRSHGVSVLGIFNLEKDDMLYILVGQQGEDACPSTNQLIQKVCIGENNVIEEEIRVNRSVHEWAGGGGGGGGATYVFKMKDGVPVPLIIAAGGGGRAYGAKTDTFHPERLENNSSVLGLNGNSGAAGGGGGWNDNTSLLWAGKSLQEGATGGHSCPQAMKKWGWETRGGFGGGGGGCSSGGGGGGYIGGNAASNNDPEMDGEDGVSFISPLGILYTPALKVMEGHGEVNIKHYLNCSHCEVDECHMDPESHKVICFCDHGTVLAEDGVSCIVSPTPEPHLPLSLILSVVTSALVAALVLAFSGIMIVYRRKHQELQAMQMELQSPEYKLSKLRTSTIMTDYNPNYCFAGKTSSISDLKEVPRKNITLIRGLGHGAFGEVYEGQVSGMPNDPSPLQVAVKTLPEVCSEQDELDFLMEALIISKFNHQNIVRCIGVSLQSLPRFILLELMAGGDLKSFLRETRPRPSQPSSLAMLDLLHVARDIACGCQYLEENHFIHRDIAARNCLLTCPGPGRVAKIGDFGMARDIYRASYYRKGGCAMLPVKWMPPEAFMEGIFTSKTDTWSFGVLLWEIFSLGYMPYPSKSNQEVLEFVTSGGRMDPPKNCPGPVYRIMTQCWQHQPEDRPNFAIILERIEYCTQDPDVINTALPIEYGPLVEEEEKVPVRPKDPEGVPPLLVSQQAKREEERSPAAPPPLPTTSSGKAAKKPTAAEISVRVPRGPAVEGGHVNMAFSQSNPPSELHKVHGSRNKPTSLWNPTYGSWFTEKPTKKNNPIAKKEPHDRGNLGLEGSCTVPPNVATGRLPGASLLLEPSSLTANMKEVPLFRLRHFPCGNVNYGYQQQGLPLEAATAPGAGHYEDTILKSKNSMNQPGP

Compound: CCN1C(=O)CCCc2cc(Nc3ncc(Cl)c(Nc4ccccc4-c4nccn4C)n3)c(OC)cc21 [Example 996, 7-{5-Chloro-4-[2-(1-methyl-1H-imidazol-2-yl)-phenylamino]-pyrimidin-2-ylamino}-1-ethyl-8-methoxy-1,3,4,5-tetrahydro-benzo[b]azepin-2-one]
- IC50 [1, 7]: < 100 nM
- IC50 [2, 8]: > 10000 nM

Compound: CNC(=O)c1ccccc1Nc1nc(Nc2ccc3c(c2)CCN(CCF)CC3)ncc1Cl [Example 38, 2-{5-Chloro-2-[3-(2-fluoro-ethyl)-2,3,4,5-tetrahydro-1H-benzo[d]azepin-7-ylamino]-pyrimidin-4-ylamino}-N-methyl-benzamide]
- IC50 [1, 9]: < 100 nM
- IC50 [2, 10]: < 100 nM

Compound: CCN1CCc2ccc(Nc3ncc(Cl)c(Nc4ccccc4S(=O)(=O)NC)n3)cc2CC1 [Example 32, 2-[5-Chloro-2-(3-ethyl-2,3,4,5-tetrahydro-1H-benzo[d]azepin-7-ylamino)-pyrimidin-4-ylamino]-N-methyl-benzenesulfonamide]
- IC50 [1, 9]: < 100 nM
- IC50 [2, 10]: < 100 nM

Compound: 2-{5-Chloro-2-[1-methoxy-7-(4-methyl-piperazin-1-yl)-6,7,8,9-tetrahydro-5H-benzocyclohepten-2-ylamino]-pyrimidin-4-ylamino}-N,N-dimethyl-benzenesulfonamide [Example 912]
- IC50 [1, 7]: < 100 nM
- IC50 [2, 8]: > 10000 nM

Compound: COc1cc2c(cc1Nc1ncc(Cl)c(N[C@@H]3CCCC[C@H]3NS(C)(=O)=O)n1)CCN(CC(=O)N(C)C)CC2 [Example 258, 2-{7-[5-Chloro-4-((1R,2R)-2-methanesulfonylamino-cyclohexylamino)-pyrimidin-2-ylamino]-8-methoxy-1,2,4,5-tetrahydro-benzo[d]azepin-3-yl}-N,N-dimethyl-acetamide]
- IC50 [1, 9]: < 100 nM
- IC50 [2, 10]: > 10000 nM

Compound: CN(C)S(=O)(=O)c1ccccc1Nc1nc(Nc2ccc3c(c2)CCN(C(=O)C2COCCO2)CC3)ncc1Cl (stereo not shown) [Example 638, 2-{5-Chloro-2-[3-([1,4]dioxane-2-carbonyl)-2,3,4,5-tetrahydro-1H-benzo[d]azepin-7-ylamino]-pyrimidin-4-ylamino}-N,N-dimethyl-benzenesulfonamide]
- IC50 [1, 7]: < 100 nM
- IC50 [2, 8]: < 100 nM

Compound: CCN1CCc2ccc(Nc3ncc(Cl)c(NC4CCCCNC4=O)n3)cc2CC1 (stereo not shown) [Example 166, 3-[5-Chloro-2-(3-ethyl-2,3,4,5-tetrahydro-1H-benzo[d]azepin-7-ylamino)-pyrimidin-4-ylamino]-azepan-2-one]
- IC50 [1, 9]: < 100 nM
- IC50 [2, 10]: 1000 to 10000 nM

Compound: CNC(=O)c1ccccc1Nc1nc(Nc2ccc3c(c2OC)CCCC(=O)N3C)ncc1Cl [Example 116, 2-[5-Chloro-2-(6-methoxy-1-methyl-2-oxo-2,3,4,5-tetrahydro-1H-benzo[b]azepin-7-ylamino)-pyrimidin-4-ylamino]-N-methyl-benzamide]
- IC50 [1, 9]: < 100 nM
- IC50 [2, 10]: 1000 to 10000 nM

Compound: COCCN1CCc2ccc(Nc3ncc(Cl)c(N[C@@H]4CCCC[C@H]4NS(C)(=O)=O)n3)cc2CC1 [Example 36, N-((1R,2R)-2-{5-Chloro-2-[3-(2-methoxy-ethyl)-2,3,4,5-tetrahydro-1H-benzo[d]azepin-7-ylamino]-pyrimidin-4-ylamino}-cyclohexyl)-methanesulfonamide]
- IC50 [1, 9]: < 100 nM
- IC50 [2, 10]: 1000 to 10000 nM

Compound: COCCN1CCN(C)c2ccc(Nc3ncc(Cl)c(Nc4ccccc4NS(C)(=O)=O)n3)cc2C1 [Example 429, N-(2-{5-Chloro-2-[4-(2-methoxy-ethyl)-1-methyl-2,3,4,5-tetrahydro-1H-benzo[e][1,4]diazepin-7-ylamino]-pyrimidin-4-ylamino}-phenyl)-methanesulfonamide]
- IC50 [1, 9]: < 100 nM
- IC50 [2, 10]: 100 to 1000 nM

Compound: COc1cc2c(cc1Nc1ncc(Cl)c(N[C@H]3[C@@H](C(N)=O)[C@@H]4C=C[C@H]3C4)n1)CCN(CC(F)F)CC2 [Example 806, (1S,2S,3R,4R)-3-{5-Chloro-2-[3-(2,2-difluoro-ethyl)-8-methoxy-2,3,4,5-tetrahydro-1H-benzo[d]azepin-7-ylamino]-pyrimidin-4-ylamino}-bicyclo[2.2.1]hept-5-ene-2-carboxylic acid amide]
- IC50 [1, 7]: < 100 nM
- IC50 [2, 8]: > 10000 nM

Compound: CN1C(=O)CCCc2ccc(Nc3ncc(Cl)c(NC4C5C=CC(C5)C4C(N)=O)n3)cc21 (stereo not drawn) [Example 110, (2-exo,3-exo)-3-[5-Chloro-2-(1-methyl-2-oxo-2,3,4,5-tetrahydro-1H-benzo[b]azepin-8-ylamino)pyrimidin-4-ylamino]-bicyclo[2.2.1]hept-5-ene-2-carboxylic acid amide]
- IC50 [1, 9]: < 100 nM
- IC50 [2, 10]: 100 to 1000 nM

Other lines, results leading:

- IC50 [1, 3]: < 100 nM
- IC50 [2, 4]: 100 to 1000 nM
Compound: CC1(C)CCCN(C(=O)CN2CCCC2)c2cc(Nc3ncc(Cl)c(N[C@H]4[C@@H](C(N)=O)[C@@H]5C=C[C@H]4C5)n3)ccc21 [Example 1607, (1S,2S,3R,4R)-3-{5-Chloro-2-[5,5-dimethyl-1-(2-pyrrolidin-1-yl-acetyl)-2,3,4,5-tetrahydro-1H-benzo[b]azepin-8-ylamino]-pyrimidin-4-ylamino}-bicyclo[2.2.1]hept-5-ene-2-carboxylic acid amide]

- IC50 [1, 5]: 100 to 1000 nM
- IC50 [2, 6]: 1000 to 10000 nM
Compound: COCCN1CCc2ccc(Nc3ncc(Cl)c(N[C@H]4CC[C@@H](NS(C)(=O)=O)CC4)n3)cc2CC1 [Example 1381, cis-N-(4-{5-Chloro-2-[3-(2-methoxy-ethyl)-2,3,4,5-tetrahydro-1H-benzo[d]azepin-7-ylamino]-pyrimidin-4-ylamino}-cyclohexyl)-methanesulfonamide]

- IC50 [1, 5]: < 100 nM
- IC50 [2, 6]: 1000 to 10000 nM
Compound: CCNC(=O)c1cccc(F)c1Nc1nc(Nc2cc3c(cc2OC)CCN(CC(=O)N(C)C)CC3)ncc1Cl [Example 1119, 2-[5-Chloro-2-(3-dimethylcarbamoylmethyl-8-methoxy-2,3,4,5-tetrahydro-1H-benzo[d]azepin-7-ylamino)-pyrimidin-4-ylamino]-N-ethyl-3-fluoro-benzamide]

- IC50 [1, 5]: < 100 nM
- IC50 [2, 6]: > 10000 nM
Compound: CNC(=O)CN1CCc2cc(Nc3ncc(Cl)c(Nc4ccccc4OC)n3)c(OC)cc2CC1 [Example 1135, 2-{7-[5-Chloro-4-(2-methoxy-phenylamino)-pyrimidin-2-ylamino]-8-methoxy-1,2,4,5-tetrahydro-benzo[d]azepin-3-yl}-N-methyl-acetamide]

- IC50 [1, 3]: 1000 to 10000 nM
- IC50 [2, 4]: 100 to 1000 nM
Compound: CNC(=O)c1cccc(F)c1Nc1nc(Nc2ccc3c(c2)NC(=O)C(NCCOC)CC3)ncc1Cl (stereo not shown) [Example 1495, 2-{5-Chloro-2-[3-(2-methoxy-ethylamino)-2-oxo-2,3,4,5-tetrahydro-1H-benzo[b]azepin-8-ylamino]-pyrimidin-4-ylamino}-3-fluoro-N-methyl-benzamide]

- IC50 [1, 5]: 100 to 1000 nM
- IC50 [2, 6]: > 10000 nM
Compound: COc1cc2c(cc1Nc1ncc(Cl)c(NC3(C(=O)NCC#N)CC3)n1)CCN(CC(=O)N(C)C)CC2 [Example 1199, 1-[5-Chloro-2-(3-dimethylcarbamoylmethyl-8-methoxy-2,3,4,5-tetrahydro-1H-benzo[d]azepin-7-ylamino)-pyrimidin-4-ylamino]-cyclopropanecarboxylic acid cyanomethyl-amide]

- IC50 [1, 3]: 1000 to 10000 nM
- IC50 [2, 4]: 1000 to 10000 nM
Compound: CNC(=O)c1cccc(F)c1Nc1nc(Nc2ccc3c(c2)CCC(=O)NC3(C)C)ncc1Cl [Example 1826, 2-(5-Chloro-2-(1,1-dimethyl-3-oxo-2,3,4,5-tetrahydro-1H-benzo[c]azepin-7-ylamino)pyrimidin-4-ylamino)-3-fluoro-N-methylbenzamide]

- IC50 [1, 5]: 100 to 1000 nM
- IC50 [2, 6]: 1000 to 10000 nM
Compound: COCCN1CCc2ccc(Nc3ncc(Cl)c(N[C@H]4CC[C@H](N(CC#N)S(C)(=O)=O)CC4)n3)cc2CC1 [Example 1385, trans-N-(4-{5-Chloro-2-[3-(2-methoxy-ethyl)-2,3,4,5-tetrahydro-1H-benzo[d]azepin-7-ylamino]-pyrimidin-4-ylamino}-cyclohexyl)-N-cyanomethyl-methanesulfonamide]

- IC50 [1, 3]: < 100 nM
- IC50 [2, 4]: > 10000 nM
Compound: COCCN1CC(=O)Nc2cc(Nc3ncc(Cl)c(N[C@H]4[C@@H](C(N)=O)[C@@H]5C=C[C@H]4C5)n3)c(OC)cc2C1 [Example 1665, (1S,2S,3R,4R)-3-{5-Chloro-2-[7-methoxy-4-(2-methoxy-ethyl)-2-oxo-2,3,4,5-tetrahydro-1H-benzo[e][1,4]diazepin-8-ylamino]-pyrimidin-4-ylamino}-bicyclo[2.2.1]hept-5-ene-2-carboxylic acid amide]

- IC50 [1, 5]: 100 to 1000 nM
- IC50 [2, 6]: < 100 nM
Compound: CNC(=O)c1scc(C)c1Nc1nc(Nc2ccc3c(c2)CCN(CCOC)CC3)ncc1Cl [Example 1362, 3-{5-Chloro-2-[3-(2-methoxy-ethyl)-2,3,4,5-tetrahydro-1H-benzo[d]azepin-7-ylamino]-pyrimidin-4-ylamino}-4-methyl-thiophene-2-carboxylic acid methylamide]

- IC50 [1, 3]: 100 to 1000 nM
- IC50 [2, 4]: > 10000 nM
Compound: COc1cc2c(cc1Nc1ncc(Cl)c(Nc3ccccc3S(=O)(=O)N(C)C)n1)N(CC(=O)N(C)C)C(=O)CN(CC(=O)N(C)C)C2 [Example 1656, 2-{8-[5-Chloro-4-(2-dimethylsulfamoyl-phenylamino)-pyrimidin-2-ylamino]-1-dimethylcarbamoylmethyl-7-methoxy-2-oxo-1,2,3,5-tetrahydro-benzo[e][1,4]diazepin-4-yl}-N,N-dimethyl-acetamide]
